Here are results for 2 compounds from ChEMBL document CHEMBL1136306, “Design and synthesis of a new fluorescent probe for cytochrome P450 3A4 (CYP 3A4)” (Bioorg Med Chem Lett, 2003).

The test concerns the target Cytochrome P450 3A4 (Homo sapiens, UniProt P08684).

Sequence of Cytochrome P450 3A4 (P08684 whole entry): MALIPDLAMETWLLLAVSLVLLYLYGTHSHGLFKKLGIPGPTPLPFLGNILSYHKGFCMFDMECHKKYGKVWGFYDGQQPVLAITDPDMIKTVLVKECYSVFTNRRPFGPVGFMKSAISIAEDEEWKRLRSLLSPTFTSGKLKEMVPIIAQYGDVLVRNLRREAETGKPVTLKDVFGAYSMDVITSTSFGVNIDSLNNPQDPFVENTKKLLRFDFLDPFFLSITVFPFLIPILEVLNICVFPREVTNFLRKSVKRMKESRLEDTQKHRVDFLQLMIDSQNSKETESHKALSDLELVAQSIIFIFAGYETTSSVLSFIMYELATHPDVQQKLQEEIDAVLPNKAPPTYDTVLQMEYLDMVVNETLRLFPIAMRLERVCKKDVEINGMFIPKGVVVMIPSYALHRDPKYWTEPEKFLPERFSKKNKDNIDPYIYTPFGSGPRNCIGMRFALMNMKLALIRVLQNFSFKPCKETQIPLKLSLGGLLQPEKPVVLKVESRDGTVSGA

By IC50 is commonly meant the point on the concentration scale where inhibition reaches its midpoint. Lower therefore signals greater potency. `OC1N=C(c2ccccc2F)c2cc(Cl)ccc2-n2cncc21` (configuration not stated) had an IC50 of 10 µM.
Turning to `OCc1ncc2n1-c1ccc(Cl)cc1C(c1ccccc1F)=NC2` [ALPHA-HYDROXY-MIDAZOLAM], 10 µM corresponded to half-maximal inhibition (IC50).
